Results from PubChem BioAssay AID248 (DTP/NCI, 2004).
Values joined by “and” are separate entries in the source; they are usually repeats but may differ in a detail not shown here. Identical values can stand only once. Toxic doses and inconclusive results are not listed. No stated cut-off is given here; in the data, active means T/C of 150% or more; inactive means T/C below 125%.

Tested on: L1210 leukemia ip in BDF1 mice, survival T/C
Assay: NCI In Vivo Anticancer Drug Screen. Data for tumor model L1210 Leukemia (intraperitoneal) in B6D2F1 (BDF1) mice
Settings: endpoint: mean survival time, higher = longer survival
Method in brief: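 Read-out is survival time, reported as the treated-group measurement over the vehicle-control measurement.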

[1] = dose: 50.0 mg/kg/injection, schedule: Q01DX009 (ip), vehicle: saline with Tween-80
[2] = dose: 100.0 mg/kg/injection, schedule: Q01DX009 (ip), vehicle: saline with Tween-80
[3] = dose: 100.0 mg/kg/injection, schedule: Q04DX003 (ip), vehicle: saline with Tween-80
[4] = dose: 200.0 mg/kg/injection, schedule: Q01DX009 (ip), vehicle: saline with Tween-80
[5] = dose: 200.0 mg/kg/injection, schedule: Q04DX003 (ip), vehicle: saline with Tween-80
[6] = dose: 400.0 mg/kg/injection, schedule: Q01DX009 (ip), vehicle: saline with Tween-80
[7] = dose: 400.0 mg/kg/injection, schedule: Q04DX003 (ip), vehicle: saline with Tween-80
[8] = dose: 12.5 mg/kg/injection, schedule: Q01DX009 (ip), vehicle: Klucel (hydroxypropylcellulose) (HPC)
[9] = dose: 25.0 mg/kg/injection, schedule: Q01DX009 (ip), vehicle: Klucel (hydroxypropylcellulose) (HPC)
[10] = dose: 50.0 mg/kg/injection, schedule: Q01DX001 (ip), vehicle: Klucel (hydroxypropylcellulose) (HPC)
[11] = dose: 50.0 mg/kg/injection, schedule: Q01DX009 (ip), vehicle: Klucel (hydroxypropylcellulose) (HPC)
[12] = dose: 50.0 mg/kg/injection, schedule: Q04DX003 (ip), vehicle: Klucel (hydroxypropylcellulose) (HPC)
[13] = dose: 100.0 mg/kg/injection, schedule: Q04DX002 (ip), vehicle: Klucel (hydroxypropylcellulose) (HPC)
[14] = dose: 100.0 mg/kg/injection, schedule: Q04DX003 (ip), vehicle: Klucel (hydroxypropylcellulose) (HPC)
[15] = dose: 100.0 mg/kg/injection, schedule: Q01DX009 (ip), vehicle: Klucel (hydroxypropylcellulose) (HPC)
[16] = dose: 200.0 mg/kg/injection, schedule: Q01DX009 (ip), vehicle: Klucel (hydroxypropylcellulose) (HPC)
[17] = dose: 200.0 mg/kg/injection, schedule: Q04DX003 (ip), vehicle: Klucel (hydroxypropylcellulose) (HPC)
[18] = dose: 100.0 mg/kg/injection, schedule: Q04DX002 (ip), vehicle: saline with Tween-80
[19] = dose: 200.0 mg/kg/injection, schedule: Q04DX002 (ip), vehicle: saline with Tween-80
[20] = dose: 400.0 mg/kg/injection, schedule: Q04DX002 (ip), vehicle: saline with Tween-80

Measured: T/C

CC/C=C(/C)C(C#N)(C(=O)O)C(C)C (stereo unspecified)
inactive: dose: 75.0 mg/kg/injection, schedule: Q01DX001 (ip), vehicle: saline 98 % of control | dose: 150.0 mg/kg/injection, schedule: Q01DX001 (ip), vehicle: saline 104 % of control | dose: 300.0 mg/kg/injection, schedule: Q01DX001 (ip), vehicle: saline 94 % of control

COc1ccc(NC(=O)CCC(=O)O)cc1
inactive: [1] 110 % of control | dose: 50.0 mg/kg/injection, schedule: Q04DX003 (ip), vehicle: saline with Tween-80 96 % of control | [2] 108 % of control | [3] 100 % of control | [4] 100 % of control | [5] 100 % of control | [6] 107 % of control | [7] 94 % of control

Nc1nc(Br)c(Br)nc1C(=O)O
inactive: [8] 101 % of control and 103 % of control | [9] 97 % of control | [10] 101 % of control | [11] 95 % of control and 91 % of control | dose: 50.0 mg/kg/injection, schedule: Q04DX002 (ip), vehicle: Klucel (hydroxypropylcellulose) (HPC) 104 % of control | [12] 103 % of control | dose: 100.0 mg/kg/injection, schedule: Q01DX001 (ip), vehicle: Klucel (hydroxypropylcellulose) (HPC) 102 % of control | [13] 100 % of control | [14] 106 % of control | dose: 200.0 mg/kg/injection, schedule: Q01DX001 (ip), vehicle: Klucel (hydroxypropylcellulose) (HPC) 96 % of control

O=C(O)c1ccccc1CCl
inactive: [2] 101 % of control | [4] 108 % of control | [6] 95 % of control

CNC(=O)Nc1cc(OC)ccc1OC
inactive: [15] 106 % of control | [16] 98 % of control | dose: 400.0 mg/kg/injection, schedule: Q01DX009 (ip), vehicle: Klucel (hydroxypropylcellulose) (HPC) 107 % of control

Cn1c(=O)c2ccccc2c2cc([N+](=O)[O-])ccc21
inactive: [11] 93 % of control | [15] 97 % of control | [14] 90 % of control | [16] 97 % of control | [17] 94 % of control

COC(=O)C(=O)CC(=O)c1ccc(Cl)cc1
inactive: [13] 100 % of control | dose: 200.0 mg/kg/injection, schedule: Q04DX002 (ip), vehicle: Klucel (hydroxypropylcellulose) (HPC) 106 % of control | dose: 400.0 mg/kg/injection, schedule: Q04DX002 (ip), vehicle: Klucel (hydroxypropylcellulose) (HPC) 95 % of control

Clc1ccccc1C=NC1CCCCC1
inactive: [18] 96 % of control | [19] 96 % of control | [20] 93 % of control

Nc1[nH]c(=S)ncc1-c1ccccc1Cl
inactive: dose: 6.25 mg/kg/injection, schedule: Q01DX009 (ip), vehicle: Klucel (hydroxypropylcellulose) (HPC) 94 % of control | [8] 94 % of control | [9] 97 % of control | [15] 88 % of control

O=[N+]([O-])Nc1ccc(C(c2ccc(N[N+](=O)[O-])cc2)c2ccc([N+](=O)[O-])cc2)cc1
inactive: dose: 100.0 mg/kg/injection, schedule: Q01DX005 (ip), vehicle: saline with Tween-80 89 % of control | [2] 100 % of control | dose: 200.0 mg/kg/injection, schedule: Q01DX005 (ip), vehicle: saline with Tween-80 100 % of control | [4] 92 % of control | dose: 400.0 mg/kg/injection, schedule: Q01DX005 (ip), vehicle: saline with Tween-80 89 % of control | [6] 94 % of control

NS(=O)(=O)c1ccc(N=Nc2ccc(O)c3ncccc23)cc1
inactive: dose: 100.0 mg/kg/injection, schedule: Q01DX001 (ip), vehicle: saline 101 % of control | dose: 200.0 mg/kg/injection, schedule: Q01DX001 (ip), vehicle: saline 98 % of control | dose: 400.0 mg/kg/injection, schedule: Q01DX001 (ip), vehicle: saline 98 % of control

O=C(C[n+]1ccccc1)N/N=C/c1cccc([N+](=O)[O-])c1
inactive: [1] 91 % of control

CCN(CC)C(C)COC(=O)c1cc(=O)n(C)c2ccccc12 (stereo unspecified)
inactive: dose: 50.0 mg/kg/injection, schedule: Q01DX009 (ip), vehicle: saline 101 % of control | dose: 100.0 mg/kg/injection, schedule: Q01DX009 (ip), vehicle: saline 98 % of control | dose: 100.0 mg/kg/injection, schedule: Q04DX003 (ip), vehicle: saline 95 % of control | dose: 200.0 mg/kg/injection, schedule: Q01DX009 (ip), vehicle: saline 89 % of control | dose: 200.0 mg/kg/injection, schedule: Q04DX003 (ip), vehicle: saline 97 % of control

CCC(CO)Nc1nc2cc(Cl)ccc2c2ccc(Cl)cc12 (stereo unspecified)
inactive: [14] 102 % of control | [17] 100 % of control | dose: 400.0 mg/kg/injection, schedule: Q04DX003 (ip), vehicle: Klucel (hydroxypropylcellulose) (HPC) 103 % of control

O=C1NN=C2CCCCC12 (stereo unspecified)
inactive: dose: 100.0 mg/kg/injection, schedule: Q04DX003 (ip), vehicle: other 107 % of control | dose: 200.0 mg/kg/injection, schedule: Q04DX003 (ip), vehicle: other 97 % of control | dose: 400.0 mg/kg/injection, schedule: Q04DX003 (ip), vehicle: other 102 % of control

O=C(/C=C(\CBr)c1ccc(-c2ccccc2)cc1)c1ccccc1
inactive: dose: 50.0 mg/kg/injection, schedule: Q01DX001 (ip), vehicle: saline with Tween-80 92 % of control | dose: 100.0 mg/kg/injection, schedule: Q01DX001 (ip), vehicle: saline with Tween-80 87 % of control and 89 % of control | dose: 200.0 mg/kg/injection, schedule: Q01DX001 (ip), vehicle: saline with Tween-80 91 % of control | dose: 400.0 mg/kg/injection, schedule: Q01DX001 (ip), vehicle: saline with Tween-80 94 % of control

C[N+](C)(C)CC1(COC(=O)C(O)(c2ccccc2)c2ccccc2)CCC1
inactive: dose: 12.0 mg/kg/injection, schedule: Q01DX001 (ip), vehicle: Klucel (hydroxypropylcellulose) (HPC) 100 % of control | dose: 12.0 mg/kg/injection, schedule: Q04DX003 (ip), vehicle: Klucel (hydroxypropylcellulose) (HPC) 94 % of control | dose: 25.0 mg/kg/injection, schedule: Q01DX001 (ip), vehicle: Klucel (hydroxypropylcellulose) (HPC) 98 % of control | dose: 25.0 mg/kg/injection, schedule: Q04DX003 (ip), vehicle: Klucel (hydroxypropylcellulose) (HPC) 86 % of control | [10] 96 % of control | [12] 86 % of control

CN(C)CCOC(=O)c1ccc(CBr)cc1
inactive: dose: 10.0 mg/kg/injection, schedule: Q01DX009 (ip), vehicle: saline 97 % of control | dose: 20.0 mg/kg/injection, schedule: Q01DX009 (ip), vehicle: saline 95 % of control | dose: 40.0 mg/kg/injection, schedule: Q01DX009 (ip), vehicle: saline 93 % of control | dose: 87.5 mg/kg/injection, schedule: Q01DX009 (ip), vehicle: saline 101 % of control

CC(=O)N(c1ccncc1)c1ccc([N+](=O)[O-])cc1
inactive: [1] 94 % of control | [2] 97 % of control and 107 % of control | [18] 105 % of control and 108 % of control | [3] 98 % of control | [4] 94 % of control and 110 % of control | [19] 105 % of control and 109 % of control | [5] 98 % of control | [20] 92 % of control | [7] 104 % of control
